Results reported in patent publication US20170000749A1, “Methods for Treating Cognitive Disorders Using Inhibitors of Histone Deacetylase” (Forum Pharmaceuticals, Inc., priority 2008, published 2017).
Like-named read-outs stand apart in the source and are kept apart here.

Tests used:
[1] = system: HDAC activity in primary mouse cortical cultures; test: Whole-Cell Histone Deacetylase (HDAC) Inhibition Assay in Primary Mouse Cortical Cultures; type: cell-based
How it was run: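 Primary neocortical neurons from E17 Balb/C mouse embryos were plated at 50000 cells/well and treated at DIV9 with ten-point DMSO dilutions for 16-18 h at 37° C, in triplicate. BOC-Lys(Ac)-AMC substrate was then added for 1 h. Fluor de Lys developer containing 1 uM TSA produced a fluorophore, which was read.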

[2] = target: one or more of HDAC-1, HDAC-2, HDAC-3, HDAC-4, HDAC-5, HDAC-6, HDAC-7, HDAC-8, HDAC-9, HDAC-10 and HDAC-11; test: Inhibition of Histone Deacetylase Enzymatic Activity (Boc-Lys(Ac)-AMC substrate, Fluor-de-Lys developer); type: biochemical; conditions: read-out: HDAC Inhibition (IC50 μM) HDAC Enzyme
Method: The following protocol is used to assay the compounds of the disclosure.
The mixture is pre-incubated for 5 minutes at room temperature. The reaction is started by bringing the temperature to 37° C. and adding 16 μl substrate. Total reaction volume is 50 μl.
In the Tables 8, 9 and 10, A≦0.05 μM; 0.05 μM<B≦0.1 μM; 0.1 μM<C≦1 μM; and 1 μM<D≦10 μM.

[3] = whole-cell (WC), mouse cortical neurons, Table 8, read-out: HDAC Inhibition (IC50 μM) WC mouse cortical neurons
[4] = whole-cell (WC), mouse cortical neurons, Table 9, read-out: HDAC Inhibition (IC50 μM) WC mouse cortical neurons
[5] = whole-cell (WC), mouse cortical neurons, Table 10, read-out: HDAC Inhibition (IC50 μM) WC mouse cortical neurons
[6] = read-out: HDAC Inhibition (IC50 μM) WC mouse cortical neurons, Table 10

## O=C(NO)c1ccc(C2Nc3ccccc3Oc3ccccc32)cc1 (centres unmarked) [4-(10,11-dihydrodibenzo[b,f][1,4]oxazepin-11-yl)-N-hydroxybenzamide]
[1]; [3]
  IC50: 1 to 5 µM
[2]; Table 8
  IC50: < 0.05 µM

## CSc1cccc2c1Oc1ccccc1N=C2c1ccc(C(=O)NO)cc1 [(Z)—N-hydroxy-4-(4-(methylthio)dibenzo[b,f][1,4]oxazepin-11-yl)benzamide]
[1]; [3]
  IC50: 1 to 5 µM
[2]; Table 8
  IC50: < 0.05 µM

## Cc1ccc(N2CC3CC2CN3c2ccc(C(=O)NO)cn2)cc1 (centres unmarked) [N-hydroxy-6-(5-p-tolyl-2,5-diazabicyclo[2.2.1]heptan-2-yl)nicotinamide]
[1]; [4]
  IC50: < 1 µM
[2]; Table 9
  IC50: < 0.05 µM

## O=C(NO)c1cnc(N2CCCN(c3ncc(C(F)(F)F)cc3Cl)CC2)nc1
[1]; [5]
  IC50: 5 to 15 µM
[2]; Table 10
  IC50: < 0.05 µM

## O=C(NO)c1cnc(N2C[C@@H]3C[C@H]2CN3c2cccc(S(F)(F)(F)(F)F)c2)nc1
[1]; [4]
  IC50: 1 to 5 µM
[2]; Table 9
  IC50: < 0.05 µM

## COc1cccc2c1Oc1ccc(C(F)(F)F)cc1N=C2c1ccc(C(=O)NO)cc1 [(Z)-N-hydroxy-4-(4-methoxy-8-(trifluoromethyl)dibenzo[b,f][1,4]oxazepin-11-yl)benzamide]
[1]; [3]
  IC50: 5 to 15 µM
[2]; Table 8
  IC50: 0.1 to 1 µM

## Cc1cccc(N2CC3CC2CN3c2ccc(C(=O)NO)cc2)c1 (centres unmarked) [N-hydroxy-4-(5-m-tolyl-2,5-diazabicyclo[2.2.1]heptan-2-yl)benzamide]
[1]; [4]
  IC50: 1 to 5 µM
[2]; Table 9
  IC50: 0.1 to 1 µM

## O=C(NO)c1ccc(C2=Nc3ccc(C(F)(F)F)cc3Oc3ccccc32)cc1 [(Z)—N-hydroxy-4-(7-(trifluoromethyl)dibenzo[b,f][1,4]oxazepin-11-yl)benzamide]
[1]; [3]
  IC50: > 15 µM
[2]; Table 8
  IC50: 0.1 to 1 µM

## CC(C)(C)OC(=O)N1C[C@@H]2C[C@H]1CN2c1ncc(C(=O)NO)cn1 [(1S,4S)-tert-butyl 5-(5-(hydroxycarbamoyl)pyrimidin-2-yl)-2,5-diazabicyclo[2.2.1]heptane-2-carboxylate]
[1]; [4]
  IC50: < 1 µM
[2]; Table 9
  IC50: < 0.05 µM

## O=C(NO)c1ccc(Cn2c(=O)c3ccccc3c3ccccc32)cc1 [N-hydroxy-4-((6-oxophenanthridin-5(6H)-yl)methyl)benzamide]
[1]; [5]
  IC50: < 1 µM
[2]; Table 10
  IC50: < 0.05 µM

## O=C(/C=C/c1ccc(CN2C(=O)c3ccccc3Oc3ccccc32)cc1)NO
[1]; [5]
  IC50: 1 to 5 µM
[2]; Table 10
  IC50: < 0.05 µM

## O=C(NO)c1ccc(N2C[C@H]3C[C@@H]2CN3c2cc(C(F)(F)F)ccn2)cc1 [N-hydroxy-4-((1R,4R)-5-(4-(trifluoromethyl)pyridin-2-yl)-2,5-diazabicyclo[2.2.1]heptan-2-yl)benzamide]
[1]; [4]
  IC50: 5 to 15 µM
[2]; Table 9
  IC50: 1 to 10 µM

## O=C(CCCCCCCN1C(=O)CN=C(c2ccccc2)c2ccccc21)NO [(Z)-N-hydroxy-8-(2-oxo-5-phenyl-2,3-dihydro-1H-benzo[e][1,4]diazepin-1-yl)octanamide]
[1]; [6]
  IC50: 1 to 5 µM
[2]; Table 10
  IC50: 0.1 to 1 µM

## O=C(NO)c1cnc(N2C[C@@H]3C[C@H]2CN3C(=O)OCc2cccnc2)nc1 [(1S,4S)-pyridin-3-ylmethyl 5-(5-(hydroxycarbamoyl)pyrimidin-2-yl)-2,5-diazabicyclo[2.2.1]heptane-2-carboxylate]
[1]; [4]
  IC50: < 1 µM
[2]; Table 9
  IC50: < 0.05 µM

## N#Cc1cccc(N2CC3CC2CN3c2ncc(C(=O)NO)cn2)c1 (centres unmarked) [2-(5-(3-cyanophenyl)-2,5-diazabicyclo[2.2.1]heptan-2-yl)-N-hydroxypyrimidine-5-carboxamide]
[1]; [4]
  IC50: < 1 µM
[2]; Table 9
  IC50: < 0.05 µM

## CN(c1ncc(C(=O)NO)cn1)C1c2ccccc2CCc2ccccc21
[1]; [5]
  IC50: 1 to 5 µM
[2]; Table 10
  IC50: < 0.05 µM

## O=C(NO)c1cnc(N2C[C@@H]3C[C@H]2CN3C(=O)N2CCCC2)nc1 [N-hydroxy-2-((1S,4S)-5-(pyrrolidine-1-carbonyl)-2,5-diazabicyclo[2.2.1]heptan-2-yl)pyrimidine-5-carboxamide]
[1]; [4]
  IC50: < 1 µM
[2]; Table 9
  IC50: 0.05 to 0.1 µM

## O=C(NO)c1ccc(C2=Nc3ccccc3Oc3ncccc32)cc1 [(Z)-4-(benzo[b]pyrido[3,2-f][1,4]oxazepin-5-yl)-N-hydroxybenzamide]
[1]; [3]
  IC50: 1 to 5 µM
[2]; Table 8
  IC50: 0.05 to 0.1 µM

## O=C(CCCCCCN1c2ccccc2Oc2ccccc2S1(=O)=O)NO
[1]; [5]
  IC50: 1 to 5 µM
[2]; Table 10
  IC50: 0.1 to 1 µM

## Cc1ccc2c(c1)Oc1ccccc1N=C2c1ccc(C(=O)NO)cc1 [(Z)—N-hydroxy-4-(3-methyldibenzo[b,f][1,4]oxazepin-11-yl)benzamide]
[1]; [3]
  IC50: 1 to 5 µM
[2]; Table 8
  IC50: < 0.05 µM

## O=C(CCCCCCC(=O)N1c2ccccc2C=Cc2ccccc21)NO [(Z)-8-(5H-dibenzo[b,f]azepin-5-yl)-N-hydroxy-8-oxooctanamide]
[1]; [5]
  IC50: 5 to 15 µM
[2]; Table 10
  IC50: 0.1 to 1 µM

## O=C(NO)c1ccc(-c2ccc3c(c2)C(N2CCOCC2)=Nc2ccccc2O3)cc1 [(E)-N-hydroxy-4-(11-morpholinodibenzo[b,f][1,4]oxazepin-2-yl)benzamide]
[1]; [3]
  IC50: > 15 µM
[2]; Table 8
  IC50: < 0.05 µM

## O=C(CCn1cc(CN2C(=O)c3ccccc3Oc3ccccc32)nn1)NO [N-hydroxy-3-(4-((11-oxodibenzo[b,f][1,4]oxazepin-10(11H)-yl)methyl)-1H-1,2,3-triazol-1-yl)propanamide]
[1]; [5]
  IC50: 1 to 5 µM
[2]; Table 10
  IC50: 0.1 to 1 µM

## O=C(NO)c1cnc(N2C[C@@H]3C[C@H]2CN3c2cc(C(F)(F)F)nc3ccccc23)nc1 [N-hydroxy-2-((1S,4S)-5-(2-(trifluoromethyl)quinolin-4-yl)-2,5-diazabicyclo[2.2.1]heptan-2-yl)pyrimidine-5-carboxamide]
[1]; [4]
  IC50: < 1 µM
[2]; Table 9
  IC50: < 0.05 µM

## O=C(CCCCCCN1C(=O)c2cccnc2N(C2CC2)c2ccccc21)NO [7-(11-cyclopropyl-5-oxo-5H-benzo[b]pyrido[2,3-e][1,4]diazepin-6(11H)-yl)-N-hydroxyheptanamide]
[1]; [5]
  IC50: 1 to 5 µM
[2]; Table 10
  IC50: 0.05 to 0.1 µM

## CN1C(=O)CN=C(c2ccc(C(=O)NO)cc2)c2ccccc21 [(Z)-N-hydroxy-4-(1-methyl-2-oxo-2,3-dihydro-1H-benzo[e][1,4]diazepin-5-yl)benzamide]
[1]; [6]
  IC50: 5 to 15 µM
[2]; Table 10
  IC50: 0.1 to 1 µM

## O=C(NO)c1ccc(CNC2=Nc3ccccc3Oc3ccccc32)cc1 [(E)-4-((dibenzo[b,f][1,4]oxazepin-11-ylamino)methyl)-N-hydroxybenzamide]
[1]; [3]
  IC50: < 1 µM
[2]; Table 8
  IC50: < 0.05 µM

## O=C(NO)c1cnc(N2C[C@@H]3C[C@H]2CN3c2ccccc2C(F)(F)F)nc1 [N-hydroxy-2-((1S,4S)-5-(2-(trifluoromethyl)phenyl)-2,5-diazabicyclo[2.2.1]heptan-2-yl)pyrimidine-5-carboxamide]
[1]; [4]
  IC50: 1 to 5 µM
[2]; Table 9
  IC50: 0.1 to 1 µM

## CN(C)C(=O)c1cccc(N2C[C@@H]3C[C@H]2CN3c2ncc(C(=O)NO)cn2)c1 [2-((1S,4S)-5-(3-(dimethylcarbamoyl)phenyl)-2,5-diazabicyclo[2.2.1]heptan-2-yl)-N-hydroxypyrimidine-5-carboxamide]
[1]; [4]
  IC50: < 1 µM
[2]; Table 9
  IC50: < 0.05 µM

## O=C(NO)c1ccc(N2C[C@@H]3C[C@H]2CN3c2cccc(C(F)(F)F)c2)nn1 [N-hydroxy-6-((1S,4S)-5-(3-(trifluoromethyl)phenyl)-2,5-diazabicyclo[2.2.1]heptan-2-yl)pyridazine-3-carboxamide]
[1]; [4]
  IC50: 5 to 15 µM
[2]; Table 9
  IC50: 0.1 to 1 µM

## O=C(CCCCCCCN1C(=O)c2ccccc2Oc2ccccc21)NO [N-hydroxy-8-(11-oxodibenzo[b,f][1,4]oxazepin-10(11H)-yl)octanamide]
[1]; [5]
  IC50: 1 to 5 µM
[2]; Table 10
  IC50: 0.05 to 0.1 µM

## O=C(CCCCN1c2ccccc2C=Cc2ccccc21)NO [(Z)-5-(5H-dibenzo[b,f]azepin-5-yl)-N-hydroxypentanamide]
[1]; [5]
  IC50: 5 to 15 µM
[2]; Table 10
  IC50: 0.1 to 1 µM

## O=C(NO)c1cnc(C2c3ccccc3C=Cc3ccccc32)nc1
[1]; [5]
  IC50: > 15 µM
[2]; Table 10
  IC50: 0.1 to 1 µM

## O=C(NO)c1cnc(N2C[C@@H]3C[C@H]2CN3C(=O)c2ccccc2)nc1 [2-((1S,4S)-5-benzoyl-2,5-diazabicyclo[2.2.1]heptan-2-yl)-N-hydroxypyrimidine-5-carboxamide]
[1]; [4]
  IC50: < 1 µM
[2]; Table 9
  IC50: < 0.05 µM

## O=C(CCCCCCN1c2ccccc2C=Cc2ccccc21)NO [(Z)-7-(5H-dibenzo[b,f]azepin-5-yl)-N-hydroxyheptanamide]
[1]; [5]
  IC50: 1 to 5 µM
[2]; Table 10
  IC50: < 0.05 µM

## O=C(NO)c1ccc(C2=Nc3ccccc3Oc3ccccc32)cc1 [(Z)-4-(dibenzo[b,f][1,4]oxazepin-11-yl)-N-hydroxybenzamide]
[1]; [3]
  IC50: < 1 µM
[2]; Table 8
  IC50: < 0.05 µM

## O=C(NO)c1ccc(OCCN2C(=O)c3cc(F)ccc3Oc3ccccc32)cc1
[1]; [5]
  IC50: < 1 µM
[2]; Table 10
  IC50: < 0.05 µM

## O=C(NO)c1ccc(OCCN2C(=O)c3ccccc3Oc3ccccc32)c(F)c1
[1]; [5]
  IC50: < 1 µM
[2]; Table 10
  IC50: 0.05 to 0.1 µM

## O=C(NO)c1cnc(N2C[C@@H]3C[C@H]2CN3c2ccc(Cl)cc2)nc1 [2-((1S,4S)-5-(4-chlorophenyl)-2,5-diazabicyclo[2.2.1]heptan-2-yl)-N-hydroxypyrimidine-5-carboxamide]
[1]; [4]
  IC50: < 1 µM
[2]; Table 9
  IC50: < 0.05 µM

## O=C(NO)c1cnc(OC(c2ccc(F)cc2)c2ccc(F)cc2)nc1 [2-(bis(4-fluorophenyl)methoxy)-N-hydroxypyrimidine-5-carboxamide]
[1]; [5]
  IC50: > 15 µM
[2]; Table 10
  IC50: 0.1 to 1 µM
